Measurements reported in patent US10501481B2, “Heterocyclic compounds and their use in preventing or treating bacterial infections” (priority 2015, dated 2019).
≈ marks a conversion by molar mass, not a printed value. Where two headings read alike, the source gives them in different places.

Columns and labels:
TEM-1 = target: T1, TEM-1 (Escherichia coli, UniProt P62593); assay: β-lactamase inhibitory activity, nitrocefin hydrolysis; assay type: biochemical; settings: class (A); 30 min pre-incubation; nitrocefin 200 μM
T1 construct: made in house; host or cells: E. coli
Method: (§1) Enzyme activity was monitored by spectrophotometric measurement of nitrocefin (NCF-TOKU-E, N005) hydrolysis at 485 nm, at room temperature and in assay buffer A: 100 mM Phosphate pH7, 2% glycerol and 0.1 mg/mL Bovine serum albumin (Sigma, B4287). […] To a transparent polystyrene plate (Corning, 3628) were added in each well 5 μL DMSO or inhibitor dilutions in DMSO and 80 μL enzyme in buffer A. Plates were immediately read at 485 nm in a microplate spectrophotometer (BioTek, PowerWave HT) to enable background subtraction. After 30 min of pre-incubation at room temperature, 15 μL of NCF (200 μM final) were finally added in each well. Final enzyme concentrations were 0.1 nM (TEM-1), 0.075 nM (SHV-1), 0.4 nM (CTX-M-15), 1 nM (KPC-2), 0.2 nM (P99 AmpC), 0.2 nM (CMY-37), 0.4 nM (AmpC P. aeruginosa), 0.2 nM (OXA-1), 1.2 nM (OXA-11), 0.4 nM (OXA-15) and 0.3 nM (OXA-48). After 20 min incubation at room temperature, plates were once again read at 485 nm. Enzyme activity was obtained by subtracting the final signal by the background, and was converted to enzyme inhibition using non inhibited wells. IC50 curves were fitted to a classical Langmuir equilibrium model with Hill slope using XLFIT (IDBS).

SHV-1 = target: T2, SHV-1 (Klebsiella pneumoniae, UniProt P0AD64); assay: as above; assay type: biochemical
T2 construct: made in house; host or cells: E. coli
Method: as §1

CTX-M-15 = target: T3, CTX-M-15 (Escherichia coli, UniProt Q9EXV5); assay: as above; assay type: biochemical
T3 construct: made in house; host or cells: E. coli
Method: as §1

KPC-2 = target: T4, KPC-2 (Klebsiella pneumoniae, UniProt Q9F663); assay: as above; assay type: biochemical
T4 construct: made in house; host or cells: E. coli
Method: as §1

P99 AmpC = target: T5, P99 AmpC (Enterobacter cloacae, UniProt P05364); assay: as above; assay type: biochemical; settings: class (C); 30 min pre-incubation; nitrocefin 200 μM
T5 construct: made in house; host or cells: E. coli
Method: as §1

AmpC P. aeruginosa = AmpC P. aeruginosa (Pseudomonas aeruginosa, UniProt P24735); assay: biochemical
Method: Enzyme activity was monitored by spectrophotometric measurement of nitrocefin (NCF-TOKU-E, N005) hydrolysis at 485 nm, at room temperature and in assay buffer A: 100 mM Phosphate pH7, 2% glycerol and 0.1 mg/mL Bovine serum albumin (Sigma, B4287). Enzymes were cloned in E. coli expression vector, expressed and purified in house using classical procedures. To a transparent polystyrene plate (Corning, 3628) were added in each well 5 μL DMSO or inhibitor dilutions in DMSO and 80 μL enzyme in buffer A. Plates were immediately read at 485 nm in a microplate spectrophotometer (BioTek, PowerWave HT) to enable background subtraction. After 30 min of pre-incubation at room temperature, 15 μL of NCF (200 μM final) were finally added in each well. Final enzyme concentrations were 0.1 nM (TEM-1), 0.075 nM (SHV-1), 0.4 nM (CTX-M-15), 1 nM (KPC-2), 0.2 nM (P99 AmpC), 0.2 nM (CMY-37), 0.4 nM (AmpC P. aeruginosa), 0.2 nM (OXA-1), 1.2 nM (OXA-11), 0.4 nM (OXA-15) and 0.3 nM (OXA-48). After 20 min incubation at room temperature, plates were once again read at 485 nm. Enzyme activity was obtained by subtracting the final signal by the background, and was converted to enzyme inhibition using non inhibited wells. IC50 curves were fitted to a classical Langmuir equilibrium model with Hill slope using XLFIT (IDBS).

OXA-1 = target: T6, OXA-1 (Escherichia coli, UniProt P13661); assay: β-lactamase inhibitory activity, nitrocefin hydrolysis; assay type: biochemical
T6 construct: made in house; host or cells: E. coli
Method: as §1

OXA-11 = target: T7, OXA-11 (Pseudomonas aeruginosa, UniProt Q06778); assay: as above; assay type: biochemical
T7 construct: made in house; host or cells: E. coli
Method: as §1

OXA-15 = target: T8, OXA-15 (Pseudomonas aeruginosa, UniProt Q51574); assay: as above; assay type: biochemical
T8 construct: made in house; host or cells: E. coli
Method: as §1

OXA-48 = target: T9, OXA-48 (Klebsiella pneumoniae, UniProt Q6XEC0); assay: as above; assay type: biochemical
T9 construct: made in house; host or cells: E. coli
Method: as §1

[1] = system: K. pneumoniae BAA-1898 (TEM-1, SHV-11, SHV-12, KPC-2); assay: microbe, parasite or virus in culture; assay type: cell-based; settings: for MIC: Klebsiella pneumoniae; for MIC of CAZ in combination with compound at 4 μg/mL: strain BAA-1898, compound fixed at 4 μg/mL
[2] = system: P. aeruginosa CIP105250 (OXA-15); assay: MIC broth microdilution, compounds alone; settings: Pseudomonas aeruginosa, CIP105250, read-out: MIC compounds of the invention alone
E. cloacae P99 (AmpC) = assay: MIC broth microdilution, alone and synergy with ceftazidime; settings: for MIC: Enterobacter cloacae; for MIC of CAZ in combination with compound at 4 μg/mL: strain P99, compound fixed at 4 μg/mL
[3] = system: K. pneumoniae 6299 (TEM-1, SHV-11, OXA-163); assay: as above; settings: for MIC: Klebsiella pneumoniae
E. coli RGN238 (OXA-1) = assay: as above; settings: Escherichia coli
[4] = system: E. coli 190317 (TEM-1, SHV-12, CTX-M-15, OXA-1); assay: as above; settings: for MIC: Escherichia coli; for MIC of CAZ in combination with compound at 4 μg/mL: strain 190317, compound fixed at 4 μg/mL
[5] = system: P. aeruginosa CIP107051 (TEM-24); assay: as above; settings: for MIC: Pseudomonas aeruginosa; for MIC of CAZ in combination with compound at 4 μg/mL: strain CIP107051, compound fixed at 4 μg/mL
[6] = system: E. cloacae 260508 (TEM-1, CTX-M-15); assay: as above; settings: Enterobacter cloacae, read-out: MIC CAZ
[7] = system: E. coli UFR61O (TEM-1, KPC-2); assay: as above; settings: Escherichia coli, read-out: MIC CAZ
[8] = system: K. pneumoniae 160143 (TEM-1, SHV-1, CTX-M-15, KPC-2, OXA-1); assay: as above; settings: Klebsiella pneumoniae, read-out: MIC CAZ
[9] = system: K. pneumoniae UFR68 (TEM-1, SHV-11, CTX-M-15, KPC-3); assay: as above; settings: Klebsiella pneumoniae, read-out: MIC CAZ
[10] = system: E. cloacae UFR70 (TEM-1, CTX-M-15, CMY-2, OXA-1, Porin loss); assay: as above; settings: Enterobacter cloacae, read-out: MIC CAZ
[11] = system: K. pneumoniae UFR77 (CMY-2); assay: as above; settings: Klebsiella pneumoniae, read-out: MIC CAZ
[12] = system: E. coli UFR74 (SHV-1, DHA-1); assay: as above; settings: Escherichia coli, read-out: MIC CAZ
[13] = system: E. coli UFR18 (CTX-M-15, OXA-204); assay: as above; settings: Escherichia coli, read-out: MIC CAZ
[14] = system: E. coli 131119 (TEM-1, OXA-48); assay: as above; settings: Escherichia coli
[15] = system: K. oxytoca UFR21 (TEM-1, CTX-M-15, OXA-48); assay: as above; settings: Klebsiella oxytoca, read-out: MIC CAZ
[16] = system: K. pneumoniae UFR24 (TEM-1, SHV-2, SHV-11, OXA-1, OXA-48, OXA-47); assay: as above; settings: Klebsiella pneumoniae, read-out: MIC CAZ
[17] = system: K. pneumoniae 200047 (TEM-1, SHV-32, CTX-M-15, OXA-1); assay: as above; settings: Klebsiella pneumoniae, read-out: MIC CAZ
[18] = system: E. coli UFR32 (TEM-1, VEB-1, OXA-10); assay: as above; settings: Escherichia coli, read-out: MIC CAZ
[19] = system: E. cloacae UFR38 (CTX-M-15, NDM-1); assay: as above; settings: Enterobacter cloacae, read-out: MIC CAZ
[20] = system: C. murliniae 210102 (VIM-4); assay: as above; settings: read-out: MIC CAZ
[21] = system: E. coli UFR52 (TEM-1, SHV-12, IMP-8); assay: as above; settings: Escherichia coli, read-out: MIC CAZ
[22] = system: P. aeruginosa UFR35 (OXA-23); assay: as above; settings: Pseudomonas aeruginosa, read-out: MIC CAZ
[23] = system: P. aeruginosa UFR90 (derepressed AmpC, OprD−); assay: as above; settings: Pseudomonas aeruginosa, read-out: MIC CAZ
[24] = system: P. aeruginosa UFR92 (derepressed AmpC, OprD−); assay: as above; settings: Pseudomonas aeruginosa, read-out: MIC CAZ
[25] = BAA1898, read-out: MIC compounds of the invention alone
[26] = read-out: MIC compounds of the invention alone
[27] = CIP107051, read-out: MIC compounds of the invention alone

T7 sequence (Q06778 21-266): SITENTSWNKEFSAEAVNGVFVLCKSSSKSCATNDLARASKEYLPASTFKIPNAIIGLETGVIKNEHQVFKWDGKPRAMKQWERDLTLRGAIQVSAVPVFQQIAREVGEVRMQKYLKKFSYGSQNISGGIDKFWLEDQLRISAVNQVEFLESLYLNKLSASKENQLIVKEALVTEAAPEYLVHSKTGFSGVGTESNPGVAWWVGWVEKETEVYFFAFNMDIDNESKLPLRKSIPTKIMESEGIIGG
T6 sequence (P13661 26-276): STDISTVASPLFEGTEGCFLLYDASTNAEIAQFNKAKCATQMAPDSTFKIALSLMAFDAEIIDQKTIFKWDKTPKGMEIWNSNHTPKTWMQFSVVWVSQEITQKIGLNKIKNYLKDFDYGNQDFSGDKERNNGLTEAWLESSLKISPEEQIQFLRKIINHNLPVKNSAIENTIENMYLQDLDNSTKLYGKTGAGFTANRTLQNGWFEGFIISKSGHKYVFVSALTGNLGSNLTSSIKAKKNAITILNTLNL
T5 sequence (P05364 21-381): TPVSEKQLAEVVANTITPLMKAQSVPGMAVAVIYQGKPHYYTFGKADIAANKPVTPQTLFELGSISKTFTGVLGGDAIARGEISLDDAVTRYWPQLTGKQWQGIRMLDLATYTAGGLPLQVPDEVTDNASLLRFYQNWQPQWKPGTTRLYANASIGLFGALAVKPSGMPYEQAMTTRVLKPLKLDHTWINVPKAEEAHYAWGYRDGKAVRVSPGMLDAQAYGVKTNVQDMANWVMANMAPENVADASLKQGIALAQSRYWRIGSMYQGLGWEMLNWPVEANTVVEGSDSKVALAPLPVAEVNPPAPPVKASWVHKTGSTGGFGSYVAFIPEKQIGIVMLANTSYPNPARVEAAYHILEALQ
T8 sequence (Q51574 22-275): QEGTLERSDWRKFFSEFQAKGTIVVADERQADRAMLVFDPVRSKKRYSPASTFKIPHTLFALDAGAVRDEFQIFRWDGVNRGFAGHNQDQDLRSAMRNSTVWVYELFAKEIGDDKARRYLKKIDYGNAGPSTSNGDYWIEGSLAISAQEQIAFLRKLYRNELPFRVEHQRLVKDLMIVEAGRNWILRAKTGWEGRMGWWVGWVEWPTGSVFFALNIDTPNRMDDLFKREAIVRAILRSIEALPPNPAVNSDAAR
T3 sequence (Q9EXV5 entry or part of it): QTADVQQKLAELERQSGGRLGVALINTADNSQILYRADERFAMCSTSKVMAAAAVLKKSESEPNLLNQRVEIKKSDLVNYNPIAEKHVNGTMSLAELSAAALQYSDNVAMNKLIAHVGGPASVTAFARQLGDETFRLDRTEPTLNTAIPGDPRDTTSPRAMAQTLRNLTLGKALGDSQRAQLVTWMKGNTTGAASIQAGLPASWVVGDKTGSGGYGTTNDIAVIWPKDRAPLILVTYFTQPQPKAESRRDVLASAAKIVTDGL
T4 sequence (Q9F663 25-293 limits assumed): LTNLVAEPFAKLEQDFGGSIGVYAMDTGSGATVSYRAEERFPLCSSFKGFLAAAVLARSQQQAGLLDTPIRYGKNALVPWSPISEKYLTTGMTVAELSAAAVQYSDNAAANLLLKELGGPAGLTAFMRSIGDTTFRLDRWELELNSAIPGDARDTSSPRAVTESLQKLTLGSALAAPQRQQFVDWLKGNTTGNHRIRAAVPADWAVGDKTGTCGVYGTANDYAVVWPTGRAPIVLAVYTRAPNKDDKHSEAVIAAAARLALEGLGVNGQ
Chain of AmpC P. aeruginosa (P24735 27-397): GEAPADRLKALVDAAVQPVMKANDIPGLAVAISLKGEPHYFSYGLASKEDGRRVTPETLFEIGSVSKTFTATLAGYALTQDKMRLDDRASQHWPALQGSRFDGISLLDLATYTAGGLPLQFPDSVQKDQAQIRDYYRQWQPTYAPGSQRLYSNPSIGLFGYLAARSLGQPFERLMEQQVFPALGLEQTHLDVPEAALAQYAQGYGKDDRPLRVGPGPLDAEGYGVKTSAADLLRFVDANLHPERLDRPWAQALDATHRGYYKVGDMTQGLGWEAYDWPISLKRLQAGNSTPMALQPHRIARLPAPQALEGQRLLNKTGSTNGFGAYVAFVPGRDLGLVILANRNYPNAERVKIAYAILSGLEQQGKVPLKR
T9 sequence (Q6XEC0 23-265 limits assumed): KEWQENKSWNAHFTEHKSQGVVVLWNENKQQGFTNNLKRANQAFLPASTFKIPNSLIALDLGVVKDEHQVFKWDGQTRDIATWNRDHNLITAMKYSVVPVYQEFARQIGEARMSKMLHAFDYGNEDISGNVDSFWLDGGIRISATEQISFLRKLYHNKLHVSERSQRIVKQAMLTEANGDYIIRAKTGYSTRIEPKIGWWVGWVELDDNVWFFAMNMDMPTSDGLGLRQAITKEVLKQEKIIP
T2 sequence (P0AD64 22-286): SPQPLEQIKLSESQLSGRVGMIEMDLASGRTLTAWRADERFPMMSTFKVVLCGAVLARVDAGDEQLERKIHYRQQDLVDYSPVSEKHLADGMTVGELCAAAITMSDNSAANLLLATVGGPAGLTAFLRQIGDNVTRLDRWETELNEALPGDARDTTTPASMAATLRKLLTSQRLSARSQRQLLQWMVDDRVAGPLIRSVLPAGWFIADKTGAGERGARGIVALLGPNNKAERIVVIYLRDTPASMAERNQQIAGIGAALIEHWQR
T1 sequence (P62593 24-286 limits assumed): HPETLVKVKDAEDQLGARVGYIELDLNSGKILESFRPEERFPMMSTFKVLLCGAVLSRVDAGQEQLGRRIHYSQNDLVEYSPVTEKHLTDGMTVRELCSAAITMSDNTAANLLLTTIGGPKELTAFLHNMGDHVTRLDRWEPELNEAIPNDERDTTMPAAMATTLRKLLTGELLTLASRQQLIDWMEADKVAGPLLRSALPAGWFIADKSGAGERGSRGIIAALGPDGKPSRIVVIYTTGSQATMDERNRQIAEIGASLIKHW

## N=C(N)NCCn1c2c(sc1=O)C1CN(C2)C(=O)N1OS(=O)(=O)[O-].[Na+] (stereo not drawn) [Example 6, Sodium and 2,2,2-trifluoroacetate [5-(2-quanidiniumethyl)-4,9-dioxo-3-thia-5,8,10-triaza-tricyclo[6.2.1.0^2.6]undec-2(6)-en-10-yl] sulfate]
TEM-1
  IC50: 7 nM
SHV-1
  IC50: 12 nM
CTX-M-15
  IC50: 5.4 nM
KPC-2
  IC50: 5.7 nM
P99 AmpC
  IC50: 380 nM
AmpC P. aeruginosa
  IC50: 1500 nM
OXA-1
  IC50: 1700 nM
OXA-11
  IC50: 130 nM
OXA-15
  IC50: 120 nM
OXA-48
  IC50: 1.6 nM
[1]; [25]
  MIC: 16 µg/mL
[1]
  MIC of CAZ in combination with compound at 4 μg/mL: ≤0.125 µg/mL
[2]
  MIC: 8 µg/mL
E. cloacae P99 (AmpC); [26]
  MIC: 1 µg/mL
E. cloacae P99 (AmpC)
  MIC of CAZ in combination with compound at 4 μg/mL: <0.25 µg/mL
[3]; [26]
  MIC: > 32 µg/mL
[3]; strain 6299, compound fixed at 4 μg/mL
  MIC of CAZ in combination with compound at 4 μg/mL: ≤0.125 µg/mL
E. coli RGN238 (OXA-1); [26]
  MIC: 4 µg/mL
[4]; [26]
  MIC: 1 µg/mL
[4]
  MIC of CAZ in combination with compound at 4 μg/mL: <0.25 µg/mL
[5]; [27]
  MIC: 8 µg/mL
[5]
  MIC of CAZ in combination with compound at 4 μg/mL: 8 µg/mL

## CC(C)(O/N=C(\C(=O)N[C@@H]1C(=O)N2C(C(=O)[O-])=C(C[n+]3ccccc3)CS[C@H]12)c1csc(N)n1)C(=O)O [CAZ, ceftazidime, reference compound]
[1]; BAA1898, read-out: MIC CAZ
  MIC: 256 µg/mL (≈ 468 µM)
[6]
  MIC: 128 µg/mL
[7]
  MIC: 128 µg/mL
[8]
  MIC: 128 µg/mL
[9]
  MIC: > 128 µg/mL
E. cloacae P99 (AmpC); read-out: MIC CAZ
  MIC: 128 µg/mL
[10]
  MIC: > 128 µg/mL
[11]
  MIC: 64 µg/mL
[12]
  MIC: 64 µg/mL
[13]
  MIC: > 128 µg/mL
[14]; read-out: MIC CAZ
  MIC: 0.5 µg/mL
[15]
  MIC: 128 µg/mL
[16]
  MIC: > 128 µg/mL
[3]; read-out: MIC CAZ
  MIC: 256 µg/mL
E. coli RGN238 (OXA-1); read-out: MIC CAZ
  MIC: 0.5 µg/mL
[17]
  MIC: 128 µg/mL
[4]; read-out: MIC CAZ
  MIC: 128 µg/mL
[18]
  MIC: > 128 µg/mL
[19]
  MIC: > 128 µg/mL
[20]
  MIC: > 128 µg/mL
[21]
  MIC: > 128 µg/mL
[5]; CIP107051, read-out: MIC CAZ
  MIC: 256 µg/mL
[22]
  MIC: 2 µg/mL
[23]
  MIC: 64 µg/mL
[24]
  MIC: 32 µg/mL

## CC(C)(C)OC(=O)NCCn1c2c(sc1=O)C1CN(C2)C(=O)N1OS(=O)(=O)[O-].[Na+] (stereo not drawn) [Example 3, Sodium [5-(2-(tert-butoxycarbonylamino)ethyl)-4,9-dioxo-3-thia-5,8,10-triaza-tricyclo[6.2.1.0^2.6]undec-2(6)-en-10-yl] sulfate]
TEM-1
  IC50: 5.8 nM
SHV-1
  IC50: 20 nM
CTX-M-15
  IC50: 0.49 nM
KPC-2
  IC50: 3.4 nM
P99 AmpC
  IC50: 5.9 nM
AmpC P. aeruginosa
  IC50: 200 nM
OXA-1
  IC50: 130 nM
OXA-11
  IC50: 16 nM
OXA-15
  IC50: 97 nM
OXA-48
  IC50: 1.7 nM
[1]; [25]
  MIC: > 32 µg/mL
[1]
  MIC of CAZ in combination with compound at 4 μg/mL: >128 µg/mL
[2]
  MIC: > 32 µg/mL
E. cloacae P99 (AmpC); [26]
  MIC: > 32 µg/mL
E. cloacae P99 (AmpC)
  MIC of CAZ in combination with compound at 4 μg/mL: 128 µg/mL
[14]; [26]
  MIC: > 32 µg/mL
[3]; [26]
  MIC: > 32 µg/mL
E. coli RGN238 (OXA-1); [26]
  MIC: > 32 µg/mL
[4]; [26]
  MIC: > 32 µg/mL
[4]
  MIC of CAZ in combination with compound at 4 μg/mL: 32 µg/mL
[5]; [27]
  MIC: > 32 µg/mL
[5]
  MIC of CAZ in combination with compound at 4 μg/mL: 64 µg/mL
